Source: publication PMC9005681, “Use of AD Informer Set compounds to explore validity of novel targets in Alzheimer's disease pathology” (Alzheimer's & Dementia : Translational Research & Clinical …, 2022)

Key:
[1] = target: T1, cloned human or rodent CNS receptors, channels, and transporters (PDSP panel) (Homo sapiens, UniProt P08173); assay: PDSP GPCR panel primary binding assays at 10 μM; conditions: M4, primary assay; for Mean %: mean inhibition; for Inhibition 1: replicate 1; for Inhibition 2: replicate 2; for Inhibition 3: replicate 3; for Inhibition 4: replicate 4
T1 construct: expressed in transfected cells
T1 sequence (P08173 1-479): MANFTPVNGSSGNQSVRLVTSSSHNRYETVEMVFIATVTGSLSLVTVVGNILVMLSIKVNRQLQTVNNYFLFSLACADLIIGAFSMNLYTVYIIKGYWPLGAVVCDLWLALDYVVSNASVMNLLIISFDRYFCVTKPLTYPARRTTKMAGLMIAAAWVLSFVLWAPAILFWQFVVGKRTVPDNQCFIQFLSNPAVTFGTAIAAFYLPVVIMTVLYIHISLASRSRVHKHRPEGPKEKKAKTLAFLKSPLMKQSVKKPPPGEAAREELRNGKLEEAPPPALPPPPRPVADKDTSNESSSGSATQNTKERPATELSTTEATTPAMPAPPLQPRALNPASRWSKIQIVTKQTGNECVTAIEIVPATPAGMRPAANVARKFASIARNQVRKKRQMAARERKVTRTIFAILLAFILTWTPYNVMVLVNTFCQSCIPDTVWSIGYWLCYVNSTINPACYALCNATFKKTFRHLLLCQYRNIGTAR
Experimental: (§1) GPCR panel: Screening against the receptors within the PDSP panel offers an assessment of off-target pharmacological activity at cloned human or rodent CNS receptors, channels, and transporters that could confound CNS-related phenotypes. A total of 46–47 primary binding assays were run in quadruplicate on these compounds at 10 μM, with follow-up secondary binding assays in 11-point dose-response in triplicate for select compounds versus select receptors. Secondary binding assays were executed for all receptors where test compound displaced an average of >50% of radio-labeled standard ligand. As an exception, no secondary assays were carried out for H3, PBR, or GABAA. […]

[2] = target: T2, cloned human or rodent CNS receptors, channels, and transporters (PDSP panel) (Homo sapiens, UniProt P28222); assay: PDSP GPCR panel primary binding assays at 10 μM; conditions: 5-HT1B, primary assay; for Mean %: mean inhibition; for Inhibition 1: replicate 1; for Inhibition 2: replicate 2; for Inhibition 3: replicate 3; for Inhibition 4: replicate 4
T2 construct: expressed in transfected cells
Experimental: as §1

[3] = target: T3, cloned human or rodent CNS receptors, channels, and transporters (PDSP panel) (Homo sapiens, UniProt P41595); assay: PDSP GPCR panel primary binding assays at 10 μM; conditions: 5-HT2B, primary assay; for Mean %: mean inhibition; for Inhibition 1: replicate 1; for Inhibition 2: replicate 2; for Inhibition 3: replicate 3; for Inhibition 4: replicate 4
T3 construct: expressed in transfected cells
Experimental: as §1

[4] = target: T4, cloned human or rodent CNS receptors, channels, and transporters (PDSP panel) (Homo sapiens, UniProt P46098); assay: PDSP GPCR panel primary binding assays at 10 μM; conditions: 5-HT3, primary assay; for Mean %: mean inhibition; for Inhibition 1: replicate 1; for Inhibition 2: replicate 2; for Inhibition 3: replicate 3; for Inhibition 4: replicate 4
T4 construct: expressed in transfected cells
T4 sequence (P46098 24-478): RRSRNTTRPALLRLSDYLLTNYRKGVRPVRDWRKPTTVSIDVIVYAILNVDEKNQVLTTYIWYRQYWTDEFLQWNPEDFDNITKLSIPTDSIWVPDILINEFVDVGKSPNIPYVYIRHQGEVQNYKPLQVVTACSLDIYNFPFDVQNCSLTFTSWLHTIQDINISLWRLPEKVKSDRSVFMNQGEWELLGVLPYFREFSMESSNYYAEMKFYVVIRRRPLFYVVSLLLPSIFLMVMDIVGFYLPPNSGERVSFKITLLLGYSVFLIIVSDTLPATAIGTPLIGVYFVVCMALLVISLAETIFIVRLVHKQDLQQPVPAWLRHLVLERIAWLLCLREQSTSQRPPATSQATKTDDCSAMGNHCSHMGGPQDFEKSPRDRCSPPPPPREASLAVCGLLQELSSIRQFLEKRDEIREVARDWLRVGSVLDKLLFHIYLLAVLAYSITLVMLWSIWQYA
Experimental: as §1

[5] = target: T5, cloned human or rodent CNS receptors, channels, and transporters (PDSP panel) (Homo sapiens, UniProt P47898); assay: PDSP GPCR panel primary binding assays at 10 μM; conditions: 5-HT5A, primary assay; for Mean %: mean inhibition; for Inhibition 1: replicate 1; for Inhibition 2: replicate 2; for Inhibition 3: replicate 3; for Inhibition 4: replicate 4
T5 construct: expressed in transfected cells
Experimental: as §1

[6] = target: T6, cloned human or rodent CNS receptors, channels, and transporters (PDSP panel) (Homo sapiens, UniProt P50406); assay: PDSP GPCR panel primary binding assays at 10 μM; conditions: 5-HT6, primary assay; for Mean %: mean inhibition; for Inhibition 1: replicate 1; for Inhibition 2: replicate 2; for Inhibition 3: replicate 3; for Inhibition 4: replicate 4
T6 construct: expressed in transfected cells
Experimental: as §1

cellular system = tested on: cellular system; design: method as in column References for potency and dosing (the 5th table c13); conditions: published data; References for potency and dosing; cited from earlier work
[7] = aqueous, neutral pH (7.4); cited from earlier work

T5 sequence (P47898 whole entry): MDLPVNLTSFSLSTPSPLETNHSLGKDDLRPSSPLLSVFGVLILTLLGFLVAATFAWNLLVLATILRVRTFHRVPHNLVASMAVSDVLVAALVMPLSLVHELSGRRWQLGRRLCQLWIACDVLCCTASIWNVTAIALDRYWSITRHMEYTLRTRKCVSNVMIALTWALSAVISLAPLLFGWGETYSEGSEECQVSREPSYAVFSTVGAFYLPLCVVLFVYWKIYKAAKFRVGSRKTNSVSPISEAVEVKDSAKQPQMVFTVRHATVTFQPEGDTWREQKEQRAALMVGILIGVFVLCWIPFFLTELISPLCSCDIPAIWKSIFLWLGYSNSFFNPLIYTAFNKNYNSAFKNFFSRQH
T2 sequence (P28222 whole entry): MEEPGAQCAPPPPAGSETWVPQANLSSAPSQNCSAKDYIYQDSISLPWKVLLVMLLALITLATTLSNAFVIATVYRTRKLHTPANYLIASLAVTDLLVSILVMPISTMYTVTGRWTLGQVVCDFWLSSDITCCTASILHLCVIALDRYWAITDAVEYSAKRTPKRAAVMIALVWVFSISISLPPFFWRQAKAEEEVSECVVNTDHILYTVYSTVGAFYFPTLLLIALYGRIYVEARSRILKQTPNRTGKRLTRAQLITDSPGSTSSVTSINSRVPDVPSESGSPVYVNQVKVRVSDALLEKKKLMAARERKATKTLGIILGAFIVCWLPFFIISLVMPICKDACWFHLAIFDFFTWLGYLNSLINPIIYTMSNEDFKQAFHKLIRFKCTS
T6 sequence (P50406 whole entry): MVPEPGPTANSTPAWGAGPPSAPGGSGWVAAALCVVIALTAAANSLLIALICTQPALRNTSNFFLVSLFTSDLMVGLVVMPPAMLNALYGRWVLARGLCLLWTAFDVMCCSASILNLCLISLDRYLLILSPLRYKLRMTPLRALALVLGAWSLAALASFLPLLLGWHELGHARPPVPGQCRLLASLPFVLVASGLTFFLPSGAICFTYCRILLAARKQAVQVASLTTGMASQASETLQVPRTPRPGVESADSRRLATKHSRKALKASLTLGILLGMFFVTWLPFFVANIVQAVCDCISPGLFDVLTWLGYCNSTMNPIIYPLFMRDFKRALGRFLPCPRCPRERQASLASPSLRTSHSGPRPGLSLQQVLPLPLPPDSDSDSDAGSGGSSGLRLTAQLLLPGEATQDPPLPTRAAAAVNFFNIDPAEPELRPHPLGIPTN
T3 sequence (P41595 whole entry): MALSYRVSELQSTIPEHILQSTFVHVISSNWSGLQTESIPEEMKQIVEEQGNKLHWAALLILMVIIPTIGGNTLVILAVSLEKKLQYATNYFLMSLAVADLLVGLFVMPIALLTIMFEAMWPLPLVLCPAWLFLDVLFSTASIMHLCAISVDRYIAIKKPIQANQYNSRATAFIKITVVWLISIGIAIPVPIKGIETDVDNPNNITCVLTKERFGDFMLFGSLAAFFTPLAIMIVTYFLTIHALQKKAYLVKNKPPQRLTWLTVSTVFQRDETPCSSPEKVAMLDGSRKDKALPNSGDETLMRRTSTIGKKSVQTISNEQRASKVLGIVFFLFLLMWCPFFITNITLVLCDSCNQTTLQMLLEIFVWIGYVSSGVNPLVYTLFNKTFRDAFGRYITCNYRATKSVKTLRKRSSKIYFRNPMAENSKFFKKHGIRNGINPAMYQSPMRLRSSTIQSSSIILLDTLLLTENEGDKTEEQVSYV

Row | Molecule | Mean % [1] | Inhibition 1 [1] | Inhibition 2 [1] | Inhibition 3 [1] | Inhibition 4 [1] | Mean % [2] | Inhibition 1 [2] | Inhibition 2 [2] | Inhibition 3 [2] | Inhibition 4 [2] | Mean % [3] | Inhibition 1 [3] | Inhibition 2 [3] | Inhibition 3 [3] | Inhibition 4 [3] | Mean % [4] | Inhibition 1 [4] | Inhibition 2 [4] | Inhibition 3 [4] | Inhibition 4 [4] | other results
1 | MDL 28170 [UNC10302675A] | 7.01% | 5.86% | -14.36% | 13.67% | 22.85% | 7.62% | 14.84% | 5.24% | 9.43% | 0.96% | -23.86% | -2.15% | -34.45% | -28.58% | -30.26% | -2.62% | -0.93% | 2.95% | -29.22% | 16.71% | Mean % [5]: -1.67%; Inhibition 1 [5]: -0.61%; Inhibition 2 [5]: -2.73%; Inhibition 3 [5]: -12.06%; Inhibition 4 [5]: 8.72%; Mean % [6]: -4.53%; Inhibition 1 [6]: 18.94%; Inhibition 2 [6]: -17.59%; Inhibition 3 [6]: -16%; Inhibition 4 [6]: -3.45%; Reported as cell active (<10 μM) (cellular system): Y (Published data supports that the compound is active in a cellular system when dosed at 10 μM (Y/N))
2 | O=C(NC1CC1)C(=O)C(Cc1ccccc1)NC(=O)[C@H]1CCC(=O)N1Cc1ccccc1 (stereo partly drawn) [UNC10302676A, ABT-957 (Alicapistat)] | -0.92% | -9.99% | -2.41% | -11.37% | 20.1% | 8.92% | 9.16% | 10.49% | 8.83% | 7.18% | -32.15% | -14.32% | -33.19% | -45.78% | -35.29% | -3.28% | -2.95% | -3.65% | -8.86% | 2.33% | Mean % [5]: -3.42%; Inhibition 1 [5]: 4.48%; Inhibition 2 [5]: -8.24%; Inhibition 3 [5]: -6.55%; Inhibition 4 [5]: -3.37%; Mean % [6]: -7.55%; Inhibition 1 [6]: 7.34%; Inhibition 2 [6]: -8.22%; Inhibition 3 [6]: -20.76%; Inhibition 4 [6]: -8.54%; Reported as cell active (<10 μM) (cellular system): Y (Published data supports that the compound is active in a cellular system when dosed at 10 μM (Y/N)); Kinetic solubility [7]: 176.5 µM
